Tests used:
[1] = system: integrin β7 on Tregs; test: Dose response of integrin β7 induction on expanded Tregs; format: cell-based; settings: Homo sapiens; Tregs in in vitro culture, FIG. 2c; read-out: EC50 to induce the expression of integrin β7
Protocol: (§1) FACS-sorted Treg populations were plated at 1×10^6 or 0.5×10^6 in X-VIVO-15 medium and activated with anti-CD3/anti-CD28 coated beads (Dynabeads®, Invitrogen, Paisley, UK) at 1:1 bead: cell ratio. Rapamycin was added at day 0 of culture at a final concentration of 100 nM/L +/−ATRA 1 nM/L or RAR568 1 nM/L. Next, 1,000 IU/ml recombinant human IL-2 (rhlL-2) (Proleukin®, Novartis, Camberley, UK) was added at day 5 of culture. Cells were re-stimulated every 10-12 days and expanded for a total of 24-30 days. The phenotype and suppressive ability were assessed at the end of the culture period.
(§2) Flow cytometry panels have been designed to assess the subtypes of regulatory T cells in patients with CD as well as their expression of gut homing molecules. Gating was performed based on natural populations when assessing for CD4^+CD25^highCD127low populations, as well as for CD45RA^+ Treg populations. Additionally, to minimize bias in the assessment of expression of gut homing markers and transcription factors, a fluorochrome minus one (FMO) panel was added for each marker of interest in each experiment that was performed.

[2] = system: FOXP3 in Tregs; test: FOXP3 expression of ex vivo expanded Tregs; format: cell-based, human; settings: Tregs expanded in the presence of the agonist
Protocol: as §1, §2

[3] = system: MAdCAM-1; test: In-vitro trafficking assay, MAdCAM-1 coated Ibidi flow chamber; format: cell-based, human; settings: agonist-treated Tregs from CD patients compared to cells expanded under standard conditions
Protocol: Ibidi (Martinsreid, Germany) μ-Slides VI″ were coated with recombinant human MAdCAM-1 (R&D Systems, Minneapolis, Minn.), at a concentration of 10μg/ml and incubated overnight. Cells from two CD patients that had previously undergone ex vivo expansion under two parallel conditions (Rapa and Rapa+RAR568) and had been frozen in liquid nitrogen were defrosted and rested overnight. Rested cells were then activated with rhCCL25 (R&D systems) and passed through the coated Ibidi flow chamber at a rate of 1 dyne/cm^2. The total number of cells, as well as those rolling, adherent and crawling was quantified from six randomly selected fields of view per treatment.
In order to assess the physiological relevance of the induction of α4β7 expression by RAR568, treated and untreated Tregs from CD patients were passed through a MAdCAM-1 coated flow chamber (FIG. 10). The total number of cells adherent to the chamber, as well as their stages of rolling, adhesion and crawling, were compared to cells that were expanded under standard conditions.

[4] = system: CD62L on Tregs; test: CD62L expression following ex vivo expansion; format: cell-based, human; settings: FIG. 9
Text: To address the balance between regulatory and effector T cells in the lamina propria of patients with CD, we sought to develop a highly suppressive, phenotypically stable population of autologous ex vivo expanded Tregs that were licensed to traffic to the gut by high level expression of α4β7. These cells could then be utilized as an autologous cell-based therapy for CD. We compared the efficacy of ATRA with RAR568 at inducing α4β7, to determine which agent would be more suitable for downstream application in a clinical trial of Treg therapy for CD. As previously defined^22, our standard culture conditions used the CD4^+CD25^hiCD127^loCD45RA^+ nïave Treg subset, cultured in the presence of rapamycin (RAPA) and high dose IL-2. […] Additionally, cells cultured in the presence of RAR568 cumulatively expressed more α4β7 than those cultured in the presence of ATRA (95.89±1.93 vs 74.21±25.89, p=0.024; FIG. 2b). […] The expression of CD62L, required for homing to the lymph nodes and the effective interaction between integrin α4β7 and its ligand MAdCAM-1 was maintained following ex vivo expansion, irrespective of retinoid treatment (FIG. 9).

CCOc1c(Cl)cc(C(=O)Nc2ccc(C(=O)O)c(C)c2)cc1OC(C)C [RAR568]
EC50 [1]: 0.01 nM
FOXP3 expression of expanded Tregs ([2]; mean ± SD): 96.99% ±3.51
FOXP3 expression, range ([2]; range): 91.5-99.8
total cells and cells rolling, adherent and crawling in MAdCAM-1 coated flow chamber [3]: significantly more total cells as well as cells at each condition of migration
expression of CD62L following expansion [4]: not affected

— patent publication US20220062340A1, “IMMUNOTHERAPEUTIC METHODS AND COMPOSITIONS” (KING'S COLLEGE LONDON, priority 2018, published 2022)
